Source: patent US7714014B2, “Targeting GLI proteins in human cancer by small molecules” (The Regents of the University of California, priority 2005, dated 2010)

How the values were obtained:
Normal renal cells = experiment: Apoptosis analysis (Annexin V FITC, flow cytometry); type: cell-based, human
Description: (§1) Apoptosis was analyzed by using an Annexin V FITC Apoptosis Detection Kit (Biosource, Camarillo, Calif.), according to the manufacturer's protocol. After treatment with different small molecule compounds at various concentrations for about 3 days, cells were harvested by trypsinization, stained and immediately analyzed by flow cytometry (FACScan; Decton Dickinson, Franklin Lake, N.J.). Early apoptotic cells with exposed phosphatidylserine but intact cell membranes will bind to Annexin V-FITC, but not propidium iodide (PI). Cells in necrotic or late apoptotic stages will be labeled with both Annexin V-FITC and PI. “% apoptotic cells” or “% apoptosis” refers to the combined early and late apoptotic cells.
In addition, apoptosis induction after the treatment of different doses of FN1-5 (30 and 50 μM) or FN1-8 (10, 30, and 50 μM) in normal human renal cells was examined by flow cytometry.

[1] = test system: human ovarian cancer cell line AZ23247; experiment: Cell survival assay (crystal violet); type: cell-based; details: AZ23247, 30 μM and 50 μM
Description: (§2) Typically, the small molecule compounds of the present invention were dissolved in DMSO at a concentration of 30 mM. The small molecule compounds were then tested under cell culture conditions at different concentrations ranging from 0, 10, 30, 50, to 100 uM. To determine cell survival after treatment, the cells were incubated with the small molecule compounds in 6-well plates for about 3 days. After removal of the cell culture medium, 1-ml of 0.5% crystal violet solution (prepared in 20% ethanol and 20% methanol) was added to stain the cells for 5 min. Then the crystal violet solution was rinsed clean with tap water. Cell survival was estimated based on the density of crystal stained plates.
The cell-based cytotoxicity assay described herein was used to determine the effect of small molecule compounds FN1-5 and FN1-8 in the human ovarian cancer cell line AZ23247. Viability of AZ23247 cells was analyzed after treatment with 10, 30 and 50 μM FN1-5 or FN1-8.

[2] = test system: mesothelioma cell lines MS-1 and REN; experiment: Cell survival assay (crystal violet); type: cell-based, human; details: 1, 10, and 30 μM, 3 days
Description: as §2
Cell killing was also tested using mesothelioma cell lines H290, 211H, MS1 and REN and different doses of the small molecule compounds FN1-5 and FN1-8. Cells were plated in 6-well plates and incubated with 1, 10, and 30 μM of each compound for 3 days, as described herein. […] (data not shown).

LnCAP (prostate cancer) = experiment: Apoptosis analysis (Annexin V FITC, flow cytometry); type: cell-based, human; details: 3 days
Description: as §1
Flow cytometry was also used to examine apoptosis induced by molecule compounds FN1-5 and FN1-8 in LnCAP cells. […] For example, app.

H460 (NSCLC) = experiment: as above; type: cell-based, human; details: 3 days
Description: as §1

H838 (NSCLC) = experiment: as above; type: cell-based, human; details: 3 days
Description: as §1

CaCO2 (colon cancer) = experiment: as above; type: cell-based, human; details: about 3 days
Description: as §1

[3] = test system: human pancreatic cancer cell lines L3.6sl, Panc4.21, BxPC3, and CFPAC-1; experiment: Cell survival assay (crystal violet); type: cell-based; details: for cell killing: 50 μM, all pancreatic lines analyzed
Description: as §2
The cell-based cytotoxicity assay described herein was used to determine the effect of small molecule compounds FN1-5 and FN1-8 on the human pancreatic cancer cell lines L3.6sl, Panc4.21, BxPC3, and CFPAC-1. Viability of these cells was analyzed after treatment with 10, 30 and 50 μM FN1-5 or FN1-8. […] However, cell killing mediated by FN1-5 in Panc4.21 was less when compared to its effect on the three other pancreatic cancer cell lines.

[4] = test system: Tcf-mediated gene transcription (canonical Wnt signaling) in colon cancer cell line HCT116; experiment: TOPFLASH (TOP/FOP) assay; type: cell-based, human; details: HCT116, 30 μM; for TOP/FOP activity: 18-24 hours
Description: Cells were plated in 12-well plates. The TOPFLASH or FOPFLASH reporter plasmid (Upstate; Charlottesville, Va.) was transfected transiently into cells as described above. Tcf-mediated gene transcription was determined by the ratio of pTOPFLASH:pFOPFLASH luciferase activity, each was normalized to luciferase activities of the pRL-TK reporter (co-transfected internal control). All experiments were performed in triplicate, and repeated three times.
As another specificity test of the small molecule compounds of the invention, it was tested whether small molecule compounds FN1-5, FN1-7, FN1-8, FN1-9U, FN1-9S, FN2-1, and FN3-5 could regulate the transcription activity of the canonical Wnt signaling by using TOP/FOP assay.

[5] = test system: BxPC3 (pancreatic cancer); experiment: Apoptosis analysis (Annexin V FITC, flow cytometry); type: cell-based, human; details: 3 days
Description: as §1
(§3) Flow cytometry was also used to examine apoptosis induced by molecule compounds FN1-5 and FN1-8 in the human pancreatic cancer cell lines L3.6sl, Panc4.21, BxPC3, and CFPAC-1 cells. […] For example, app.

[6] = test system: Panc4.21 (pancreatic cancer); experiment: as above; type: cell-based, human; details: 3 days
Description: as §1, §3

[7] = test system: CFPAC-1 (pancreatic cancer); experiment: as above; type: cell-based, human; details: 3 days
Description: as §1, §3

[8] = test system: L3.6s1 (pancreatic cancer); experiment: as above; type: cell-based, human; details: 3 days
Description: as §1, §3

Row | SMILES | % of apoptotic cells (Normal renal cells; 30 μM) [%] | % of apoptotic cells (Normal renal cells; 50 μM) [%] | cell killing [1] | cell killing [2] | % of apoptotic cells (LnCAP (prostate cancer); 30 μM) [%] | % of apoptotic cells (LnCAP (prostate cancer); 50 μM) [%] | % of apoptotic cells (H460 (NSCLC); H460, 30 μM) [%] | % of apoptotic cells (H460 (NSCLC); H460, 50 μM) [%] | % of apoptotic cells (H838 (NSCLC); H838, 30 μM) [%] | % of apoptotic cells (H838 (NSCLC); H838, 50 μM) [%] | % of apoptotic cells (CaCO2 (colon cancer); CaCO2, 30 μM) [%] | % of apoptotic cells (CaCO2 (colon cancer); CaCO2, 50 μM) [%] | cell killing [3] | TOP/FOP activity [4] | % of apoptotic cells ([5]; BxPC3, 30 μM) [%] | % of apoptotic cells ([5]; BxPC3, 50 μM) [%] | % of apoptotic cells ([6]; Panc4.21, 30 μM) [%] | % of apoptotic cells ([6]; Panc4.21, 50 μM) [%] | % of apoptotic cells ([7]; CFPAC-1, 30 μM) [%] | % of apoptotic cells ([7]; CFPAC-1, 50 μM) [%] | other results
1 | O=C(NCCc1ccc(O)cc1)C1C(c2ccccc2)=NN(c2ccccc2)C1c1ccccc1 (stereo not shown) [FN1-8, N-(2-(4-Hydroxyphenyl)ethyl)-1,3,5-triphenyl-4,5-dihydro-pyrazole-4-carboxyamide] | 4.1 | 6.2 | dramatic cell killing | no noticeable effect | 11.0 | 41.5 | 12.1 | 75.2 | 18.3 | 82.3 | 19.9 | 39.4 | dramatic cell killing | down-regulate TOP/FOP activity dramatically | 20.4 | 77.4 | 10.6 | 23.4 | 15.0 | 19.8 | % of apoptotic cells (Normal renal cells; 10 μM): 3.1%; % of apoptotic cells (LnCAP (prostate cancer); 10 μM): 6.9%; % of apoptotic cells (H838 (NSCLC); H838, 10 μM): 10.6%; reduction of TOP/FOP activity [4]: about 36%; % of apoptotic cells ([5]; BxPC3, 10 μM): 11.4%; % of apoptotic cells ([6]; Panc4.21, 10 μM): 11.2%; % of apoptotic cells ([7]; CFPAC-1, 10 μM): 15.4%; % of apoptotic cells ([8]; L3.6s1, 10 μM): 12.8%; % of apoptotic cells ([8]; L3.6s1, 30 μM): 25.1%; % of apoptotic cells ([8]; L3.6s1, 50 μM): 45.7%
2 | O=C(NCCCCCO)C1C(c2ccccc2)=NN(c2ccccc2)C1c1ccccc1 (stereo not shown) [FN1-5, N-(5-Hydroxypentyl)-1,3,5-triphenyl-4,5-dihydro-pyrazole-4-carboxyamide] | 5.6 | 6.6 | dramatic cell killing | no noticeable effect | 7.7 | 16.3 | 11.9 | 15.7 | 14.2 | 20.0 | 19.8 | 30.3 | dramatic cell killing | down-regulate TOP/FOP activity dramatically | 11.2 | 30.0 | 9.3 | 10.3 | 17.4 | 30.6 | % of apoptotic cells (CaCO2 (colon cancer); CaCO2, 10 μM): 8.2%; cell killing in Panc4.21 compared to the three other pancreatic cancer cell lines ([3]; Panc4.21): less; apoptosis induction ([6]; Panc4.21, 30 and 50 μM): did not seem to induce apoptosis; % of apoptotic cells ([8]; L3.6s1, 30 μM): 27.5%; % of apoptotic cells ([8]; L3.6s1, 50 μM): 44.8%
